Test results published in patent publication US20190211099A1, “METHODS AND COMPOSITIONS FOR TREATING CANCER WITH SIGLEC-9 ACTIVITY MODULATORS” (KING'S COLLEGE LONDON, priority 2016, published 2019).

What was measured:
Siglec-9 [1] = biological target: T1, Siglec-9 (Homo sapiens, UniProt Q9Y336); test: Binding of biotinylated MUC1 glycoforms to plate-bound recombinant Siglec fusion proteins; settings: 2 μg/ml biotinylated MUC1 glycoform, 4 hours; compared with Siglecs 3, 7 and 10
Experimental: Binding was enhanced when cells were pre-treated with 0.04 U/ml neuraminidase for 30 minutes at 37° C. in PBS (FIG. 3C), which removes competing cis-binding sialic acid sites from the surface of the cells. As this pattern is characteristic of binding to Siglecs (Macauley et al. (2014) NAT. REV. IMMUNOL. 14: 653-666), MUC1-ST binding to Siglecs was tested as follows: mouse anti human IgG was bound to plastic O/N and the plate was blocked using 1% BSA in PBS. Recombinant human Siglec (3, 5, 7, 8, 9 and 10) fusion proteins were added at 2 μg/mL for 2 hours. After incubation with 2 μg/ml biotinylated MUC1 glycoforms for 4 hours, O.D. was measured after the addition of streptavidin-HRP and substrate. […] Although Siglecs 3, 7 and 9 are expressed by monocytes and macrophages (FIG. 3D), a blocking antibody to Siglec-9 inhibited 80-95% of the MUC1-ST binding to these cells (FIGS. 2G-2I, 3E, and 5) indicating this is the dominant binding Siglec. […] Importantly, Siglec-9 bound to the breast cancer cell line T47D that expresses MUC1 carrying sialylated Core-1 glycans (FIG. 2J). Finally, isolated monocytes were bound to 10 μg/mL biotinylated MUC1-ST or 10 μg/mL biotinylated polyacrylamide carrying the ST glycan (PAA-ST; Glycotech).
Target sequence in this assay (Q9Y336 with tags, fused parts or gaps limits assumed): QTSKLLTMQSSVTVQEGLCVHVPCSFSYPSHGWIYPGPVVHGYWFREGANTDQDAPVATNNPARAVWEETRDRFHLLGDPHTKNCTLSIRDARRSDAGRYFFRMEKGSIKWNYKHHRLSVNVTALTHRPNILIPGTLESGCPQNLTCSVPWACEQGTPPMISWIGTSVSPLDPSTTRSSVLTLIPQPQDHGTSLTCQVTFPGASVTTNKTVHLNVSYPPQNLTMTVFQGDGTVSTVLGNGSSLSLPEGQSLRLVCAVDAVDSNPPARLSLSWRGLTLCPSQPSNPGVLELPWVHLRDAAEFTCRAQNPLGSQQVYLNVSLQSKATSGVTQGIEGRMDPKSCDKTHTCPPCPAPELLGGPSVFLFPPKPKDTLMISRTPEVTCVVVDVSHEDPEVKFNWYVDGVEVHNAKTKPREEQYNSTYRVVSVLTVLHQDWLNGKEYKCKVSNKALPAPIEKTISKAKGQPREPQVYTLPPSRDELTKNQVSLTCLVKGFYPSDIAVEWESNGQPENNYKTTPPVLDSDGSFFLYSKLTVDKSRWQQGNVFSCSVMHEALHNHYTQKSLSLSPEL

SHP1 = test: Western blot for phosphorylation of SHP1 in monocytes; format: cell-based, human; settings: primary monocytes
Experimental: A Western blot to assay phosphorylation of SHP, which is recruited by phosphorylated Siglec-9 (Avril et al. (2004) supra) was conducted. Monocytes were incubated with MUC1-ST and lysed as described above, and the resulting lysates were separated by SDS PAGE (10% gel) before being transferred, blocked and probed with anti-SHP1 (Santa Cruz), anti-phospho SHP1 (Abcam) and appropriate secondary antibodies. Phosphorylation of SHP was not observed after MUC1-ST binding to Siglec-9 on primary monocytes (FIG. 13C) although again, phosphorylation of SHP1 was observed when Siglec-9 was activated via antibody cross-linking. No activation of SHP2 was observed.

[2] = tested on: monocyte derived dendritic cells; test: Differentiation of monocytes into dendritic cells; format: cell-based, human; settings: MUC1-ST on day 0
Experimental: To differentiate monocytes into macrophages, CD14+ cells were plated at a concentration of 1×10^6/mL in AIM V medium (Lonza) with either 50 ng/mL recombinant human M-CSF or 50 ng/mL recombinant human GM-CSF (Bio-Techne). The cytokines were added every 3 days. The cells were incubated at 37° C., 5% CO2 for 7 days to fully differentiate, before being characterized as macrophages via phenotypic flow cytometric analysis. To differentiate monocytes into dendritic cells (moDC), CD14+ cells were plated at a concentration of 1×10^6/mL in AIM V medium with 1500 U/mL recombinant human IL-4 (Bio-Techne) and 400 U/mL human GM-CSF (Bio-Techne) for 6 days to fully differentiate, before being characterized as immature DCs via phenotypic flow cytometric analysis (Epics XL, Beckman Coulter or FACSCalibur, BD Biosciences plus WinMDI or Cellquest software). MoDCs were matured using 1 μg/mL LPS for 24 hours.
In addition, the effects of MUC1-ST on the differentiation of monocytes into dendritic cells were assessed. Briefly, monocytes were treated with MUC1-ST on day 0 and differentiated into immature dendritic cells (DCs) using IL-4 (1500 U/mL) and GM-CSF (400 U/mL) in AIM-V media for 6 days. Immature DCs were matured using 1 μg/mL LPS for 24 hours. […]

[3] = tested on: monocyte derived macrophages; test: Factors secreted by monocyte derived macrophages treated with MUC1-ST (ELISA); format: cell-based, human
Experimental: ELISAs for IL-6, IL-12p70, TGF-β1, PAI-1, M-CSF, EGF, SHP2, phospho-SHP2 (Biotechne) were all carried out as per manufacturer's instructions.
Secreted proteins from monocyte derived macrophages were assayed by ELISA as described in Example 2. […] All of these factors are associated with tumor progression (Duffy et al. (2014) BREAST CANCER RES. 16: 428; Jensen et al. (2002) CLIN. CANCER RES. 9:4423-4434). […] It has been discovered that MUC1-ST/Siglec-9 ‘educated’ monocytes and macrophages have a unique secretome.

Siglec-9 [4] = biological target: T1, Siglec-9; test: MUC1-ST binding to monocytic cell lines THP-1 and U937, with or without blocking antibody; format: cell-based; design: endogenous in cells; host or cells: THP-1 and U937 cells; settings: time and concentration dependent
Experimental: Unless indicated otherwise, all binding experiments using purified immune cell subsets and biotinylated purified recombinant tumor-associated MUC1 glycoforms were performed as follows. 1×10^5 isolated/differentiated cells at 5×10^5 cells per mL were incubated for 4 hours on ice with 10 μg of the appropriate biotinylated recombinant MUC1 glycoform in 0.5% BSA in PBS. Cells were washed in 0.5% BSA in PBS before 1:200 SAPE (Life Technologies) was added for 30 minutes on ice. Cells were washed and analysed by flow cytometry or fluorescent microscopy (after cytospin), using streptavidin-PE (SAPE) as a label.
Target sequence in this assay (Q9Y336 18-463): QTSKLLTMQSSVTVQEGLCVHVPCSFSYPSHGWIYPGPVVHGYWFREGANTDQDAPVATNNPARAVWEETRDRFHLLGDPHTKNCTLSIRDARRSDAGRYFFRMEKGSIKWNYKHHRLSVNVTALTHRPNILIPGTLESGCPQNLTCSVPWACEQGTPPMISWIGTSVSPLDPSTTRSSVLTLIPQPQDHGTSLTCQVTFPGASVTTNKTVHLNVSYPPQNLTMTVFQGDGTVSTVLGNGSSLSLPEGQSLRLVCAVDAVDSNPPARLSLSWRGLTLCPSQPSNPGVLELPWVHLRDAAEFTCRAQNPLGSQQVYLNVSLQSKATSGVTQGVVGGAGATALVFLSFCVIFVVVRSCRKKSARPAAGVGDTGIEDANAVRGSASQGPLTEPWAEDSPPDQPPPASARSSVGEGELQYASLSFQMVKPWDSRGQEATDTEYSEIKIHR

- binding to recombinant Siglec fusion protein (Siglec-9 [1]): greatest binding
- secretion of M-CSF, PAI-1, chitinase 3-like-1 and EGF [3]: increased secretion
- binding to cells (Siglec-9 [4]): found to bind
Substance: NeuAcα2,3Galβ1-3GalNAc linked via a Ser/Thr of MUC1 [MUC1-ST]
- phosphorylation of SHP (SHP1): not observed
- levels of CD86 (immature DCs) and of CD86 and CD83 (matured DCs) [2]: lower levels
